Measured values published in publication PMC11352961, “Peptide dendrimers transfecting CRISPR/Cas9 plasmid DNA: optimization and mechanism” (RSC Chemical Biology, 2024).
Bridge positions count the residues as written; N and C are the ends. Square brackets hold non-standard residues; d marks the D form. Side chains are listed from the residue outwards. Peptide text beside a SMILES is read from it. I, II: the chains in the order shown. * marks the point of attachment. Stearoyl = CCCCCCCCCCCCCCCCCC(=O)*; Palmitoyl = CCCCCCCCCCCCCCCC(=O)*

Experiments:
in vitro = conditions: isolated enzyme proteinase k, pH 8
HEK293 cells [1] = assay type: cell-based; conditions: 1 h
HeLa cells = assay: Cell viability by PrestoBlue assay after transfection, HeLa cells; assay type: cell-based; conditions: 4 h
HEK293 cells [2] = assay: Cell viability by PrestoBlue assay after transfection, HEK cells; assay type: cell-based; conditions: 4 h
[3] = cited from earlier work

remaining at 1 h, 200 µM (in vitro) [%]	remaining at 2 h, 200 µM (in vitro) [%]	remaining at 3 h, 200 µM (in vitro) [%]	remaining at 12 h, 200 µM (in vitro) [%]	remaining at 24 h, 200 µM (in vitro) [%]	Compound	transfection of HEK cells with protease inhibition (HEK293 cells [1]) [%]	% viability HeLa cells (HeLa cells) [%]	% viability HEK cells (HEK293 cells [2]) [%]	pKa of dendrimer N-termini [3]
100	97.7	95.4	91.8	101	CCCCCCCCCCCCCCCCCC(=O)NCCCC[C@@H](NC(=O)[C@@H](CCCCNC(=O)[C@@H](CC(C)C)NC(=O)[C@@H](CCCNC(=N)N)NC(=O)[C@@H](CCCCNC(=O)[C@@H](CC(C)C)NC(=O)[C@@H](CCCNC(=N)N)NC(=O)[C@@H](CCCCNC(=O)[C@@H](CC(C)C)NC(=O)[C@H](N)CCCNC(=N)N)NC(=O)[C@@H](CC(C)C)NC(=O)[C@H](N)CCCNC(=N)N)NC(=O)[C@@H](CC(C)C)NC(=O)[C@@H](CCCNC(=N)N)NC(=O)[C@@H](CCCCNC(=O)[C@@H](CC(C)C)NC(=O)[C@H](N)CCCNC(=N)N)NC(=O)[C@@H](CC(C)C)NC(=O)[C@H](N)CCCNC(=N)N)NC(=O)[C@@H](CC(C)C)NC(=O)[C@@H](CCCNC(=N)N)NC(=O)[C@@H](CCCCNC(=O)[C@@H](CC(C)C)NC(=O)[C@@H](CCCNC(=N)N)NC(=O)[C@@H](CCCCNC(=O)[C@@H](CC(C)C)NC(=O)[C@H](N)CCCNC(=N)N)NC(=O)[C@@H](CC(C)C)NC(=O)[C@H](N)CCCNC(=N)N)NC(=O)[C@@H](CC(C)C)NC(=O)[C@@H](CCCNC(=N)N)NC(=O)[C@@H](CCCCNC(=O)[C@@H](CC(C)C)NC(=O)[C@H](N)CCCNC(=N)N)NC(=O)[C@@H](CC(C)C)NC(=O)[C@H](N)CCCNC(=N)N)C(N)=O [Z34] (I: H-[dR][dL][dK]([dL-dR])[dR][dL][dK][dR][dL][dK][dK](Stearoyl)-NH2 / II: H-[dR][dL][dK]([dL-dR])[dR][dL][dK][dR][dL] / III: H-[dR][dL][dK]([dL-dR])[dR][dL] / IV: H-[dR][dL][dK]([dL-dR])[dR][dL]; amide I:6-IV:C, I:9-II:C, II:6-III:C)	69	94 ± 6		
					CCCCCCCCCCCCCCCCCC(=O)NCCCC[C@H](NC(=O)[C@H](CCCCNC(=O)[C@H](CC(C)C)NC(=O)[C@H](CCCCN)NC(=O)[C@H](CCCCNC(=O)[C@H](CC(C)C)NC(=O)[C@H](CCCCN)NC(=O)[C@H](CCCCNC(=O)[C@H](CC(C)C)NC(=O)[C@@H](N)CCCCN)NC(=O)[C@H](CC(C)C)NC(=O)[C@@H](N)CCCCN)NC(=O)[C@H](CC(C)C)NC(=O)[C@H](CCCCN)NC(=O)[C@H](CCCCNC(=O)[C@H](CC(C)C)NC(=O)[C@@H](N)CCCCN)NC(=O)[C@H](CC(C)C)NC(=O)[C@@H](N)CCCCN)NC(=O)[C@H](CC(C)C)NC(=O)[C@H](CCCCN)NC(=O)[C@H](CCCCNC(=O)[C@H](CC(C)C)NC(=O)[C@H](CCCCN)NC(=O)[C@H](CCCCNC(=O)[C@H](CC(C)C)NC(=O)[C@@H](N)CCCCN)NC(=O)[C@H](CC(C)C)NC(=O)[C@@H](N)CCCCN)NC(=O)[C@H](CC(C)C)NC(=O)[C@H](CCCCN)NC(=O)[C@H](CCCCNC(=O)[C@H](CC(C)C)NC(=O)[C@@H](N)CCCCN)NC(=O)[C@H](CC(C)C)NC(=O)[C@@H](N)CCCCN)C(N)=O [Z1] (I: H-KLK([Leu-Lys])KLKKLKK(Stearoyl)-NH2 / II: H-KLK([Leu-Lys])KLKKL / III: H-KLK([Leu-Lys])KL / IV: H-KLK([Leu-Lys])KL; amide I:6-IV:C, I:9-II:C, II:6-III:C)	42	51 ± 6	64 ± 7	
45	39.6	24.6	1.66	1.73	CCCCCCCCCCCCCCCCCC(=O)NCCCC[C@H](NC(=O)[C@H](CCCCNC(=O)[C@H](CC(C)C)NC(=O)[C@H](CCCNC(=N)N)NC(=O)[C@H](CCCCNC(=O)[C@H](CC(C)C)NC(=O)[C@H](CCCNC(=N)N)NC(=O)[C@H](CCCCNC(=O)[C@H](CC(C)C)NC(=O)[C@@H](N)CCCNC(=N)N)NC(=O)[C@H](CC(C)C)NC(=O)[C@@H](N)CCCNC(=N)N)NC(=O)[C@H](CC(C)C)NC(=O)[C@H](CCCNC(=N)N)NC(=O)[C@H](CCCCNC(=O)[C@H](CC(C)C)NC(=O)[C@@H](N)CCCNC(=N)N)NC(=O)[C@H](CC(C)C)NC(=O)[C@@H](N)CCCNC(=N)N)NC(=O)[C@H](CC(C)C)NC(=O)[C@H](CCCNC(=N)N)NC(=O)[C@H](CCCCNC(=O)[C@H](CC(C)C)NC(=O)[C@H](CCCNC(=N)N)NC(=O)[C@H](CCCCNC(=O)[C@H](CC(C)C)NC(=O)[C@@H](N)CCCNC(=N)N)NC(=O)[C@H](CC(C)C)NC(=O)[C@@H](N)CCCNC(=N)N)NC(=O)[C@H](CC(C)C)NC(=O)[C@H](CCCNC(=N)N)NC(=O)[C@H](CCCCNC(=O)[C@H](CC(C)C)NC(=O)[C@@H](N)CCCNC(=N)N)NC(=O)[C@H](CC(C)C)NC(=O)[C@@H](N)CCCNC(=N)N)C(N)=O [Z23] (I: H-RLK([Leu-Arg])RLKRLKK(Stearoyl)-NH2 / II: H-RLK([Leu-Arg])RLKRL / III: H-RLK([Leu-Arg])RL / IV: H-RLK([Leu-Arg])RL; amide I:6-IV:C, I:9-II:C, II:6-III:C)	46	95 ± 5	83 ± 2	
					CCCCCCCCCCCCCCCC(=O)NCCCC[C@@H](NC(=O)[C@@H](CCCCNC(=O)CCCCCCCCCCCCCCC)NC(=O)[C@@H](CCCCNC(=O)[C@@H](CC(C)C)NC(=O)[C@@H](CC(C)C)NC(=O)[C@@H](CCCCNC(=O)[C@@H](CC(C)C)NC(=O)[C@@H](CCCCN)NC(=O)[C@@H](CCCCNC(=O)[C@@H](CC(C)C)NC(=O)[C@H](N)CCCCN)NC(=O)[C@@H](CC(C)C)NC(=O)[C@H](N)CCCCN)NC(=O)[C@@H](CC(C)C)NC(=O)[C@@H](CCCCN)NC(=O)[C@@H](CCCCNC(=O)[C@@H](CC(C)C)NC(=O)[C@H](N)CCCCN)NC(=O)[C@@H](CC(C)C)NC(=O)[C@H](N)CCCCN)NC(=O)[C@@H](CC(C)C)NC(=O)[C@@H](CC(C)C)NC(=O)[C@@H](CCCCNC(=O)[C@@H](CC(C)C)NC(=O)[C@@H](CCCCN)NC(=O)[C@@H](CCCCNC(=O)[C@@H](CC(C)C)NC(=O)[C@H](N)CCCCN)NC(=O)[C@@H](CC(C)C)NC(=O)[C@H](N)CCCCN)NC(=O)[C@@H](CC(C)C)NC(=O)[C@@H](CCCCN)NC(=O)[C@@H](CCCCNC(=O)[C@@H](CC(C)C)NC(=O)[C@H](N)CCCCN)NC(=O)[C@@H](CC(C)C)NC(=O)[C@H](N)CCCCN)C(N)=O [DMH13, reference compound] (I: H-[dK][dL][dK]([dL-dK])[dK][dL][dK][dL][dL][dK][dK](Palmitoyl)[dK](Palmitoyl)-NH2 / II: H-[dK][dL][dK]([dL-dK])[dK][dL][dK][dL][dL] / III: H-[dK][dL][dK]([dL-dK])[dK][dL] / IV: H-[dK][dL][dK]([dL-dK])[dK][dL]; amide I:6-IV:C, I:9-II:C, II:6-III:C)			96 ± 6	~6.5
